biological target: T1, F508del (Homo sapiens, UniProt P13569, DEL508-508); experiment: Protocol 2: FRET membrane potential optical assay (VIPR), identification of correction compounds; type: cell-based; settings: F508del CFTR modulator activity; compounds of Table 1; read-out: EC30
T1 construct: expressed in transfected cells
Procedure, shortened: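 Single-addition HTS format: F508del-expressing NIH3T3 cells pre-incubated 16 hrs at 37° C. ± compound, with 27° C. culture as positive control. Channel activation by forskolin 10 μM and genistein 20 μM upon switch to gluconate bath, pH 7.4; read-out is FRET-based depolarization signal.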

T1 sequence (P13569 with tags, fused parts or gaps DEL508-508): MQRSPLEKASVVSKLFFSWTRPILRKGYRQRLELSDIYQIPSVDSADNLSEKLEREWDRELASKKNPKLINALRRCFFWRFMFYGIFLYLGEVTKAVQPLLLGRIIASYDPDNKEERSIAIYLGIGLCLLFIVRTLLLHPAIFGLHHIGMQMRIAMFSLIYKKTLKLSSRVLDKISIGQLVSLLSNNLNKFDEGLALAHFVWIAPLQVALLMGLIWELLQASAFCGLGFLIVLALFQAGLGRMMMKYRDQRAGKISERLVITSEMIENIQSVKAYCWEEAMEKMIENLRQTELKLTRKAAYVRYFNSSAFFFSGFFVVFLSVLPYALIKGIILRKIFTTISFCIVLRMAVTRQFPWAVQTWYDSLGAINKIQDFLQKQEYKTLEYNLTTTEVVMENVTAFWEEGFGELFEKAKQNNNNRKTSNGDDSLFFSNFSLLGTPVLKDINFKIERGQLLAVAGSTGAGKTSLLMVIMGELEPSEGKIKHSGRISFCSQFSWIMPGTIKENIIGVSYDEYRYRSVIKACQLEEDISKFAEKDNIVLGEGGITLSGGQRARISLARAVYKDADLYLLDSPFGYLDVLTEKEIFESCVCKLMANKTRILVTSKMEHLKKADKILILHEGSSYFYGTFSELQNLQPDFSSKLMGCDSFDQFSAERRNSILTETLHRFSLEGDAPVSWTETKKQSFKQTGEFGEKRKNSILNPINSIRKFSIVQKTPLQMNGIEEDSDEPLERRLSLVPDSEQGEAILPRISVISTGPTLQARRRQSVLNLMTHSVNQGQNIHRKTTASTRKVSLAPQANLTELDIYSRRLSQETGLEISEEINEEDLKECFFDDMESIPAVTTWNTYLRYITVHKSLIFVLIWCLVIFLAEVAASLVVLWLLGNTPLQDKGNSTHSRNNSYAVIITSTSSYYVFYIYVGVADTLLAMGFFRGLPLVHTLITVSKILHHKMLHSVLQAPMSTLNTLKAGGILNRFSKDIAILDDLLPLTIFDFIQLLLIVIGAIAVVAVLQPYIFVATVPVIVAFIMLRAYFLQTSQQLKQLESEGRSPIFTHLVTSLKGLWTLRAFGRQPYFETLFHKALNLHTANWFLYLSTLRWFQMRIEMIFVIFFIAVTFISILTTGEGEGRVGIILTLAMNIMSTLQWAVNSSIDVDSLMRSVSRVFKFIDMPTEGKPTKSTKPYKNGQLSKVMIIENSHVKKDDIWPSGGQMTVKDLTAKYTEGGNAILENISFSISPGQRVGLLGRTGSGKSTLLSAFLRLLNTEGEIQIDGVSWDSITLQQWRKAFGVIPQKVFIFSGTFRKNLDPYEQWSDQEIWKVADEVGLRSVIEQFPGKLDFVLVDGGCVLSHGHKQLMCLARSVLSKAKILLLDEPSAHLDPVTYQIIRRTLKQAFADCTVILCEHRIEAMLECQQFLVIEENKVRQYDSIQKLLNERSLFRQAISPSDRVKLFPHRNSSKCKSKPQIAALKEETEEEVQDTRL

SMILES	EC30 [µM]
CC(C)Cc1ccc(C(=O)NS(=O)(=O)c2ccccc2)c(N2C[C@@H](C)CC2(C)C)n1 [Compound 2246, N-(benzenesulfonyl)-6-isobutyl-2-[(4S)-2,2,4-trimethylpyrrolidin-1-yl]pyridine-3-carboxamide]	< 3
CC1CN(c2ncccc2C(=O)NS(=O)(=O)c2cccc(N3CCC(F)(F)C3)n2)C(C)(C)C1 (stereo not shown) [Compound 2166, N—[[6-(3,3-difluoropyrrolidin-1-yl)-2-pyridyl]sulfonyl]-2-(2,2,4-trimethylpyrrolidin-1-yl)pyridine-3-carboxamide]	3 to 10
C[C@@H]1CN(c2nc(-c3cc(C(F)(F)F)nn3C)ccc2C(=O)NS(=O)(=O)c2cccnc2N)C(C)(C)C1 [Compound 2416, N-[(2-amino-3-pyridyl)sulfonyl]-6-[2-methyl-5-(trifluoromethyl)pyrazol-3-yl]-2-[(4S)-2,2,4-trimethylpyrrolidin-1-yl]pyridine-3-carboxamide]	< 3
C[C@@H]1CN(c2nc(OC3CCCC3)c(F)cc2C(=O)NS(=O)(=O)c2cccc(N)n2)C(C)(C)C1 [Compound 2100, N-[(6-amino-2-pyridyl)sulfonyl]-6-(cyclopentoxy)-5-fluoro-2-[(4S)-2,2,4-trimethylpyrrolidin-1-yl]pyridine-3-carboxamide]	< 3
CC(C)COc1cc(F)cc(-c2ccc(C(=O)NS(=O)(=O)c3cccc(N)n3)c(N3C[C@H](C(F)(F)F)CC3(C)C)n2)c1 (single isomer, unassigned) [Compound 2271, N-[(6-amino-2-pyridyl)sulfonyl]-2-(2,2-dimethyl-4-(trifluoromethyl)pyrrolidin-1-yl)-6-(3-fluoro-5-isobutoxy-phenyl)pyridine-3-carboxamide]	< 3
C[C@@H]1CN(c2nc(-c3ccc4c(ccn4C)c3)ccc2C(=O)NS(=O)(=O)c2cccnc2N)C(C)(C)C1 [Compound 2352, N-[(2-amino-3-pyridyl)sulfonyl]-6-(1-methylindol-5-yl)-2-[(4S)-2,2,4-trimethylpyrrolidin-1-yl]pyridine-3-carboxamide]	< 3
CCOC(=O)c1cccc(Nc2cccc(S(=O)(=O)NC(=O)c3cccnc3N3CC(C)CC3(C)C)n2)c1 (stereo not shown) [Compound 2060, ethyl 3-[[6-[[2-(2,2,4-trimethylpyrrolidin-1-yl)pyridine-3-carbonyl]sulfamoyl]-2-pyridyl]amino]benzoate]	< 3
C[C@@H]1CN(c2nc(-c3ccc(F)c(F)c3)ccc2C(=O)NS(=O)(=O)c2cccc(N)n2)C(C)(C)C1 [Compound 2559, N-[(6-amino-2-pyridyl)sulfonyl]-6-(3,4-difluorophenyl)-2-[(4S)-2,2,4-trimethylpyrrolidin-1-yl]pyridine-3-carboxamide]	< 3
CC1CN(c2ncccc2C(=O)NS(=O)(=O)c2cccc(OCc3cnn(-c4ccccc4)c3)n2)C(C)(C)C1 (stereo not shown) [Compound 2111, N—[[6-[(1-phenylpyrazol-4-yl)methoxy]-2-pyridyl]sulfonyl]-2-(2,2,4-trimethylpyrrolidin-1-yl)pyridine-3-carboxamide]	< 3
CC1CN(c2ncccc2C(=O)NS(=O)(=O)c2cccc(Oc3cccc(C(F)(F)F)c3)n2)C(C)(C)C1 (stereo not shown) [Compound 2718]	< 3
CC1CN(c2ncccc2C(=O)NS(=O)(=O)c2cccc(Oc3ccc4c(c3)CCC4=O)n2)C(C)(C)C1 (stereo not shown) [Compound 2733]	3 to 10
CC1CN(c2ncccc2C(=O)NS(=O)(=O)c2cccc(Oc3cccc(C#N)c3)n2)C(C)(C)C1 (stereo not shown) [Compound 2725]	< 3
Cc1cccc(CNc2cccc(S(=O)(=O)NC(=O)c3cccnc3N3CC(C)CC3(C)C)n2)c1 (stereo not shown) [Compound 2391, N—[[6-(m-tolylmethylamino)-2-pyridyl]sulfonyl]-2-(2,2,4-trimethylpyrrolidin-1-yl)pyridine-3-carboxamide]	< 3
CC(C)CCOc1cccc(S(=O)(=O)NC(=O)c2cccnc2N2CC(C)CC2(C)C)n1 (stereo not shown) [Compound 2075, N-[(6-isopentyloxy-2-pyridyl)sulfonyl]-2-(2,2,4-trimethylpyrrolidin-1-yl)pyridine-3-carboxamide]	< 3

same assay, conditions: Table 3; compounds of Table 1 as modulators of CFTR activity; protocol not stated

SMILES	EC30
Cc1cc(C)c(Oc2nc(-c3ccc(C(=O)NC(C)C)c(F)c3)ccc2C(=O)NS(=O)(=O)c2cccc(N)n2)c(C)c1 [Compound 543, N-[(6-amino-2-pyridyl)sulfonyl]-6-[3-fluoro-4-(isopropylcarbamoyl)phenyl]-2-(2,4,6-trimethylphenoxy)pyridine-3-carboxamide]	++ (“++” means between 3 uM and 10 uM)
Cc1cc(C)c(Oc2nc(-c3ccc(Cl)c(OC(C)C)c3)ccc2C(=O)NS(=O)(=O)c2cccc(N)n2)c(C)c1 [Compound 281, N-[(6-amino-2-pyridyl)sulfonyl]-6-(4-chloro-3-isopropoxy-phenyl)-2-(2,4,6-trimethylphenoxy)pyridine-3-carboxamide]	+++ (“+++” means <3 uM)
CC(C)Oc1ccc(-c2ccc(C(=O)NS(=O)(=O)c3ccc[nH]c3=O)c(N3C[C@H](C)CC3(C)C)n2)cn1 [Compound 403, 6-(6-isopropoxy-3-pyridyl)-N-[(2-oxo-1H-pyridin-3-yl)sulfonyl]-2-[(4R)-2,2,4-trimethylpyrrolidin-1-yl]pyridine-3-carboxamide]	++ (“++” means between 3 uM and 10 uM)
CC(C)COc1cc(F)cc(-c2ccc(C(=O)NS(=O)(=O)c3cccc(N)n3)c(N3CCCC34CCOC4)n2)c1 (stereo not shown) [Compound 424, N-[(6-amino-2-pyridyl)sulfonyl]-6-(3-fluoro-5-isobutoxy-phenyl)-2-(8-oxa-4-azaspiro[4.4]nonan-4-yl)pyridine-3-carboxamide]	+++ (“+++” means <3 uM)
CC(C)COc1cc(F)cc(-c2ccc(C(=O)NS(=O)(=O)c3cccc(N)n3)c(N3CCC[C@@H]3c3ccccc3)n2)c1 [Compound 447, N-[(6-amino-2-pyridyl)sulfonyl]-6-(3-fluoro-5-isobutoxy-phenyl)-2-[(2R)-2-phenylpyrrolidin-1-yl]pyridine-3-carboxamide]	+++ (“+++” means <3 uM)
Cc1cccc(C)c1Cn1nc(C(C)(C)C)cc1C(=O)NS(=O)(=O)c1cccc2[nH]ncc12 [Compound 86, 5-tert-butyl-2-[(2,6-dimethylphenyl)methyl]-N-(1H-indazol-4-ylsulfonyl)pyrazole-3-carboxamide]	++ (“++” means between 3 uM and 10 uM)
CNc1cccc(S(=O)(=O)NC(=O)C2Cc3ccccc3CCN2Cc2c(C)cc(C)cc2C)n1 (stereo not shown) [Compound 747, N-[[6-(methylamino)-2-pyridyl]sulfonyl]-3-[(2,4,6-trimethylphenyl)methyl]-1,2,4,5-tetrahydro-3-benzazepine-4-carboxamide]	+++ (“+++” means <3 uM)
Cc1ccc(Oc2nc(-c3cnn(CC(C)C)c3)ccc2C(=O)NS(=O)(=O)c2nccnc2N)c(C)c1 [Compound 713, N-(3-aminopyrazin-2-yl)sulfonyl-2-(2,4-dimethylphenoxy)-6-(1-isobutylpyrazol-4-yl)pyridine-3-carboxamide]	++ (“++” means between 3 uM and 10 uM)
Cc1cc(C)c(Oc2cc(C(C)(C)C)ncc2C(=O)NS(=O)(=O)c2cccc(N)c2)c(C)c1 [Compound 338, N-(3-aminophenyl)sulfonyl-6-tert-butyl-4-(2,4,6-trimethylphenoxy)pyridine-3-carboxamide]	+++ (“+++” means <3 uM)
CC(C)(C)c1cc(C(=O)NS(=O)(=O)c2cccc(N)c2)n(Cc2c(Cl)cccc2C(F)(F)F)n1 [Compound 189, N-(3-aminophenyl)sulfonyl-5-tert-butyl-2-[[2-chloro-6-(trifluoromethyl)phenyl]methyl]pyrazole-3-carboxamide]	+++ (“+++” means <3 uM)
C[C@@H]1CC[C@H](C)N1c1nc(-c2ccc(Cl)cc2)ccc1C(=O)NS(=O)(=O)c1ccc[nH]c1=O [Compound 760, 6-(4-chlorophenyl)-2-[(2S,5R)-2,5-dimethylpyrrolidin-1-yl]-N-[(2-oxo-1H-pyridin-3-yl)sulfonyl]pyridine-3-carboxamide]	++ (“++” means between 3 uM and 10 uM)
Cc1cc(C)c(Oc2nc(-c3cc(F)cc(OC(C)C)c3)ccc2C(=O)NS(=O)(=O)c2ccc[nH]c2=O)c(C)c1 [Compound 645, 6-(3-fluoro-5-isopropoxy-phenyl)-N-[(2-oxo-1H-pyridin-3-yl)sulfonyl]-2-(2,4,6-trimethylphenoxy)pyridine-3-carboxamide]	++ (“++” means between 3 uM and 10 uM)
Cc1cc(C)c(Cn2c(C(=O)NS(=O)(=O)c3cccc(N)c3)cc3ccc(C)cc32)c(C)c1 [Compound 62, N-(3-aminophenyl)sulfonyl-6-methyl-1-[(2,4,6-trimethylphenyl)methyl]indole-2-carboxamide]	+++ (“+++” means <3 uM)
COc1ccc2c(c1)CN(Cc1c(C)cc(C)cc1C)C2(C)C(=O)NS(=O)(=O)c1cccc(N)n1 (stereo not shown) [Compound 406, N-[(6-amino-2-pyridyl)sulfonyl]-5-methoxy-1-methyl-2-[(2,4,6-trimethylphenyl)methyl]isoindoline-1-carboxamide]	+++ (“+++” means <3 uM)
COCCNc1cccc(S(=O)(=O)NC(=O)c2ccc(C)nc2Oc2c(C)cc(C)cc2C)n1 [Compound 372, N-[[6-(2-methoxyethylamino)-2-pyridyl]sulfonyl]-6-methyl-2-(2,4,6-trimethylphenoxy)pyridine-3-carboxamide]	++ (“++” means between 3 uM and 10 uM)
Cc1cc(C)c(Cn2c(C(=O)NS(=O)(=O)c3cccc(N)c3)cc3cc(F)ccc32)c(C)c1 [Compound 153, N-(3-aminophenyl)sulfonyl-5-fluoro-1-[(2,4,6-trimethylphenyl)methyl]indole-2-carboxamide]	+++ (“+++” means <3 uM)
CCOc1ccc(-c2ccc(C(=O)NS(=O)(=O)c3ccc[nH]c3=O)c(Oc3ccc(C)cc3C)n2)cc1 [Compound 517, 2-(2,4-dimethylphenoxy)-6-(4-ethoxyphenyl)-N-[(2-oxo-1H-pyridin-3-yl)sulfonyl]pyridine-3-carboxamide]	++ (“++” means between 3 uM and 10 uM)

Source: patent US10758534B2 (Vertex Pharmaceuticals Incorporated, priority 2014, dated 2020)
